The conditions of this data set: 101 kPa, Liquid mixture 1, Ring tensiometer.

Where “and” joins values, the source holds several entries; their conditions need not be identical. Equal entries are not always repeated. Numbers after ± are expanded uncertainties.

As for `CCCCCCCC[n+]1ccn(C)c1.F[P-](F)(F)(F)(F)F` [1-octyl-3-methylimidazolium hexafluorophosphate] + CCCCCC, the interfacial tension runs as follows: (283.15 K) 4.89 ± 0.23 mN/m; (293.15 K) 4.77 ± 0.23 mN/m; (303.15 K) 4.66 ± 0.23 mN/m; (313.15 K) 4.52 ± 0.22 mN/m; (323.15 K) 4.45 ± 0.22 mN/m; (333.15 K) 4.46 ± 0.22 mN/m.

With `CCCCCn1cc[n+](C)c1.F[P-](F)(F)(F)(F)F` [1-methyl-3-pentylimidazolium hexafluorophosphate] + CCCCCC, the interfacial tension was 12.37 ± 0.3 mN/m (283.15 K); 11.92 ± 0.29 mN/m (293.15 K); 12 ± 0.29 mN/m and 11.93 ± 0.29 mN/m (313.15 K); 11.78 ± 0.29 mN/m (323.15 K); 11.67 ± 0.29 mN/m (333.15 K).

Regarding `CCCCCCn1cc[n+](C)c1.F[P-](F)(F)(F)(F)F` [1-hexyl-3-methylimidazolium hexafluorophosphate] + CCCCCCC, the interfacial tension came to 8.86 ± 0.26 mN/m (283.15 K); 8.74 ± 0.26 mN/m (293.15 K); 8.73 ± 0.26 mN/m (303.15 K); 8.69 ± 0.26 mN/m (313.15 K); 8.54 ± 0.26 mN/m (323.15 K); 8.47 ± 0.26 mN/m (333.15 K).

With `CCCCCn1cc[n+](C)c1.F[P-](F)(F)(F)(F)F` [1-methyl-3-pentylimidazolium hexafluorophosphate] + CCCCCCC, the interfacial tension was found to be 12.23 ± 0.3 mN/m (283.15 K); 12.12 ± 0.29 mN/m (293.15 K); 12.02 ± 0.29 mN/m (303.15 K); 11.9 ± 0.29 mN/m (313.15 K); 11.63 ± 0.29 mN/m (323.15 K); 11.53 ± 0.29 mN/m (333.15 K).

Take `CCCCn1cc[n+](C)c1.F[P-](F)(F)(F)(F)F` [1-butyl-3-methylimidazolium hexafluorophosphate] + CCCCCCC: the interfacial tension runs as follows: (283.15 K) 14.81 ± 0.32 mN/m; (293.15 K) 14.69 ± 0.32 mN/m; (303.15 K) 14.67 ± 0.32 mN/m; (313.15 K) 14.59 ± 0.32 mN/m; (323.15 K) 14.5 ± 0.32 mN/m; (333.15 K) 14.41 ± 0.32 mN/m.

On to `CCCCCCn1cc[n+](C)c1.F[P-](F)(F)(F)(F)F` [1-hexyl-3-methylimidazolium hexafluorophosphate] + CCCCCC, for which the interfacial tension was found to be 9.01 ± 0.26 mN/m (283.15 K); 8.9 ± 0.26 mN/m (293.15 K); 8.83 ± 0.26 mN/m (303.15 K); 8.84 ± 0.26 mN/m (313.15 K); 8.73 ± 0.26 mN/m (323.15 K); 8.68 ± 0.26 mN/m (333.15 K).
